# From ChEMBL document CHEMBL1909294, “Translating clinical findings into knowledge in drug safety evaluation--drug induced liver injury prediction system (DILIps)” (PLoS Comput Biol, 2011)
# Tests used:
# [1] = test system: Hepatotoxicity;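 as to HepSE bilirubinemia: bilirubinemia hepatic side effect score drawn from the DILIps training data, a prediction system for drug-induced liver injury; call rule not given here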;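 as to HepSE cholecystitis: Cholecystitis-related hepatic side effect score drawn from the DILIps (drug-induced liver injury prediction) training data set; call rule not given here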;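 as to HepSE cholelithiasis: hepatic side effect score for cholelithiasis, drawn from the DILIps training data for predicting drug-induced liver injury; call rule not given here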;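 as to HepSE cirrhosis: cirrhosis hepatic side effect score taken from the DILIps (drug-induced liver injury prediction) training set; call rule not given here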;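 as to HepSE elevated liver function tests: hepatic side effect score for raised liver function tests, as recorded in the DILIps training set used for predicting drug-induced liver injury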; as to HepSE hepatic failure: call rule not given here;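 as to HepSE hepatomegaly: hepatic side effect score for hepatomegaly, taken from the training set of the DILIps drug-induced liver injury prediction system; call rule not given here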
# [2] = test system: Hepatotoxicity; remark: listed apart in the source;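 as to HepSE bilirubinemia: bilirubinemia hepatic side effect score drawn from the DILIps training data, a prediction system for drug-induced liver injury; call rule not given here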;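 as to HepSE cholecystitis: Cholecystitis-related hepatic side effect score drawn from the DILIps (drug-induced liver injury prediction) training data set; call rule not given here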;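 as to HepSE cholelithiasis: hepatic side effect score for cholelithiasis, drawn from the DILIps training data for predicting drug-induced liver injury; call rule not given here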;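 as to HepSE cirrhosis: cirrhosis hepatic side effect score taken from the DILIps (drug-induced liver injury prediction) training set; call rule not given here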;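 as to HepSE elevated liver function tests: hepatic side effect score for raised liver function tests, as recorded in the DILIps training set used for predicting drug-induced liver injury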; as to HepSE hepatic failure: call rule not given here
# [3] = test system: Hepatotoxicity; remark: listed apart in the source;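 as to HepSE bilirubinemia: bilirubinemia hepatic side effect score drawn from the DILIps training data, a prediction system for drug-induced liver injury; call rule not given here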;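 as to HepSE cholecystitis: Cholecystitis-related hepatic side effect score drawn from the DILIps (drug-induced liver injury prediction) training data set; call rule not given here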;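 as to HepSE cholelithiasis: hepatic side effect score for cholelithiasis, drawn from the DILIps training data for predicting drug-induced liver injury; call rule not given here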;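 as to HepSE cirrhosis: cirrhosis hepatic side effect score taken from the DILIps (drug-induced liver injury prediction) training set; call rule not given here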;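 as to HepSE elevated liver function tests: hepatic side effect score for raised liver function tests, as recorded in the DILIps training set used for predicting drug-induced liver injury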; as to HepSE hepatic failure: call rule not given here
# [4] = test system: Hepatotoxicity; remark: listed apart in the source;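 as to HepSE bilirubinemia: bilirubinemia hepatic side effect score drawn from the DILIps training data, a prediction system for drug-induced liver injury; call rule not given here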;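 as to HepSE cholecystitis: Cholecystitis-related hepatic side effect score drawn from the DILIps (drug-induced liver injury prediction) training data set; call rule not given here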;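 as to HepSE cholelithiasis: hepatic side effect score for cholelithiasis, drawn from the DILIps training data for predicting drug-induced liver injury; call rule not given here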;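 as to HepSE cirrhosis: cirrhosis hepatic side effect score taken from the DILIps (drug-induced liver injury prediction) training set; call rule not given here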;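 as to HepSE elevated liver function tests: hepatic side effect score for raised liver function tests, as recorded in the DILIps training set used for predicting drug-induced liver injury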; as to HepSE hepatic failure: call rule not given here
# [5] = test system: Hepatotoxicity; remark: listed apart in the source; as to HepSE hepatic failure: call rule not given here
# [6] = test system: Hepatotoxicity; remark: listed apart in the source; as to HepSE hepatic failure: call rule not given here
# [7] = test system: Hepatotoxicity; remark: listed apart in the source
# [8] = test system: Hepatotoxicity; remark: listed apart in the source
# [9] = test system: Hepatotoxicity; remark: listed apart in the source
# [10] = test system: Hepatotoxicity; remark: listed apart in the source
# [11] = test system: Hepatotoxicity; remark: listed apart in the source
# [12] = test system: Hepatotoxicity; remark: listed apart in the source
# [13] = test system: Hepatotoxicity; remark: listed apart in the source
# [14] = test system: Hepatotoxicity; remark: listed apart in the source
SMILES,HepSE_bilirubinemia [1],HepSE_cholecystitis [2],HepSE_cholelithiasis [3],HepSE_cirrhosis [4],HepSE_elevated liver function tests [5],HepSE_hepatic failure [6],HepSE_hepatic necrosis [7],HepSE_hepatitis [8],HepSE_hepatomegaly [9],HepSE_jaundice [10],HepSE_liver disease [11],HepSE_liver fatty [12],HepSE_liver function tests abnormal [13],HepSE_Combined Scores [14],other results
NCCCC(=O)O [GAMMA-AMINOBUTYRIC ACID],0,0,0,0,0,0,0,0,0,0,0,0,0,0,–
Nc1nc(O)c2ncn(COC(CO)CO)c2n1 [GANCICLOVIR],0,0,1,0,0,1,0,1,0,1,0,0,0,4,–
COc1c(N2CCNC(C)C2)c(F)cc2c(=O)c(C(=O)O)cn(C3CC3)c12 (configuration not stated) [GATIFLOXACIN],0,0,0,0,0,0,0,1,0,0,0,0,0,1,–
COc1cc2ncnc(Nc3ccc(F)c(Cl)c3)c2cc1OCCCN1CCOCC1 [GEFITINIB],0,0,0,0,0,0,0,0,0,0,0,0,0,0,–
Nc1ccn([C@@H]2O[C@H](CO)[C@@H](O)C2(F)F)c(=O)n1 [GEMCITABINE],0,0,0,0,0,1,0,0,0,0,0,0,0,1,–
Cc1ccc(C)c(OCCCC(C)(C)C(=O)O)c1 [GEMFIBROZIL],0,1,1,0,0,0,0,0,0,1,0,0,1,4,–
CO/N=C1\CN(c2nc3c(cc2F)c(=O)c(C(=O)O)cn3C2CC2)CC1CN (configuration not stated) [GEMIFLOXACIN],1,0,0,0,0,0,0,1,0,1,0,0,0,3,–
Cc1ccc(S(=O)(=O)NC(=O)NN2CC3CCCC3C2)cc1 (configuration not stated) [GLICLAZIDE],0,0,0,0,0,1,0,1,1,1,0,0,0,4,–
CCC1=C(C)CN(C(=O)NCCc2ccc(S(=O)(=O)NC(=O)N[C@H]3CC[C@H](C)CC3)cc2)C1=O [GLIMEPIRIDE],0,0,0,0,0,1,0,1,0,1,0,0,0,3,–
NC(=O)CC[C@H](N)C(=O)O [GLUTAMINE],0,0,0,0,0,0,0,0,0,0,0,0,0,0,–
COc1ccc(Cl)cc1C(=O)NCCc1ccc(S(=O)(=O)NC(=O)NC2CCCCC2)cc1 [GLYBURIDE],0,0,0,0,0,1,0,1,0,1,0,0,0,3,–
NCC(=O)O [GLYCINE],–,–,–,–,–,–,–,–,–,–,–,–,–,–,HepSE_bilirubinemia ([1]; Liver): 0; HepSE_cholecystitis ([2]; Liver): 0; HepSE_cholelithiasis ([3]; Liver): 0; HepSE_cirrhosis ([4]; Liver): 0; HepSE_elevated liver function tests ([5]; Liver): 0; HepSE_hepatic failure ([6]; Liver): 0; HepSE_hepatic necrosis ([7]; Liver): 0; HepSE_hepatitis ([8]; Liver): 0; HepSE_hepatomegaly ([9]; Liver): 0; HepSE_jaundice ([10]; Liver): 0; HepSE_liver disease ([11]; Liver): 0; HepSE_liver fatty ([12]; Liver): 0; HepSE_liver function tests abnormal ([13]; Liver): 0; HepSE_Combined Scores ([14]; Liver): 0
CC(C)C[C@H](NC(=O)[C@@H](COC(C)(C)C)NC(=O)[C@H](Cc1ccc(O)cc1)NC(=O)[C@H](CO)NC(=O)[C@H](Cc1c[nH]c2ccccc12)NC(=O)[C@H](Cc1cnc[nH]1)NC(=O)[C@@H]1CCC(=O)N1)C(=O)N[C@@H](CCCNC(=N)N)C(=O)N1CCC[C@H]1C(=O)NNC(N)=O [GOSERELIN],0,0,0,0,0,0,0,0,0,0,0,0,0,0,–
